Measurements from ChEMBL document CHEMBL6127041, “Dual-target inhibitors based on acetylcholinesterase: Novel agents for Alzheimer's disease” (Eur J Med Chem, 2024).
pIC50: −log10 of the molar value. One block for each compound: values may come before it.

How the values were obtained:
Beta-secretase 1 [1] = biological target: T1, Beta-secretase 1 (Homo sapiens, UniProt P56817); experiment: Inhibition of human BACE-1 by FRET assay
Acetylcholinesterase [2] = biological target: T2, Acetylcholinesterase (Homo sapiens, UniProt P22303); experiment: Inhibition of human recombinant AChE using acetylthiocholine iodide as substratE incubated for 20 mins by DTNB reagent based Ellman's method
T2 sequence (P22303 whole entry): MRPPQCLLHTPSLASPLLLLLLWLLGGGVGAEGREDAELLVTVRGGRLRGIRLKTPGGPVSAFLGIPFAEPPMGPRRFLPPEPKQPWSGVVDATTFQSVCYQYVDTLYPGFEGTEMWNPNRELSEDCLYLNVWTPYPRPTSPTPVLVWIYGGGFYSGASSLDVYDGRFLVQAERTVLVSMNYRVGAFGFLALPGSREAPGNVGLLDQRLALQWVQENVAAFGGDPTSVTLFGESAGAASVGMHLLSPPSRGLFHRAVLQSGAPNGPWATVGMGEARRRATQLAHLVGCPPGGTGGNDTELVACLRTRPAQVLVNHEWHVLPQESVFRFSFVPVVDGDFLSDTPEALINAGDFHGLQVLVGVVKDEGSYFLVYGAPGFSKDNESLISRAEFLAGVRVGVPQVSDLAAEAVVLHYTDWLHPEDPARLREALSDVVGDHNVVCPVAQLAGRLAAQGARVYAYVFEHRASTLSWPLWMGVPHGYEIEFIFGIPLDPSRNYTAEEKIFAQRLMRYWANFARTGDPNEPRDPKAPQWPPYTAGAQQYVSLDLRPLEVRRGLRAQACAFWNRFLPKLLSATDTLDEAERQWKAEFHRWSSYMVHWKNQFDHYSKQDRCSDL

Acetylcholinesterase [3] = biological target: T2, Acetylcholinesterase; experiment: Inhibition of AChE (unknown origin) using acetylthiocholine iodide as substrate measured after 15 mins by Ellman's method
[4] = biological target: T3, Glycogen synthase kinase-3 beta (Homo sapiens, UniProt P49841); experiment: Inhibition of GSK3beta (unknown origin)
T3 sequence (P49841 whole entry): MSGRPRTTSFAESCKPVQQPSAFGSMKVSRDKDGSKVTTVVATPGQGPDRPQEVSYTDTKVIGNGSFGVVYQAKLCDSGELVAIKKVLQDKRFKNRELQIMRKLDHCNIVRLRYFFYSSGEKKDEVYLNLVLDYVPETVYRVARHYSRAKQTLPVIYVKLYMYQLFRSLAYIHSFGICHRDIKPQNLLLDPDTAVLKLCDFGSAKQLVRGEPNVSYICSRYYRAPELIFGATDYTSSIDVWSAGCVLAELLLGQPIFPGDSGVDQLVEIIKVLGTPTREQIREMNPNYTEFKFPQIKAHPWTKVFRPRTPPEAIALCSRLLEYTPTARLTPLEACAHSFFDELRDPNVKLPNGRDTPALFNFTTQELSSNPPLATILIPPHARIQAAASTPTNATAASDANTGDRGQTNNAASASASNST

Acetylcholinesterase [5] = biological target: T2, Acetylcholinesterase; experiment: Inhibition of AChE (unknown origin)
[6] = biological target: T4, Amine oxidase [flavin-containing] B (Homo sapiens, UniProt P27338); experiment: Inhibition of human MAO-B using Tyramine hydrochloride as substrate preincubated for 30 mins followed by substrate addition and measured for 1 hr by fluorometric method
T4 sequence (P27338 whole entry): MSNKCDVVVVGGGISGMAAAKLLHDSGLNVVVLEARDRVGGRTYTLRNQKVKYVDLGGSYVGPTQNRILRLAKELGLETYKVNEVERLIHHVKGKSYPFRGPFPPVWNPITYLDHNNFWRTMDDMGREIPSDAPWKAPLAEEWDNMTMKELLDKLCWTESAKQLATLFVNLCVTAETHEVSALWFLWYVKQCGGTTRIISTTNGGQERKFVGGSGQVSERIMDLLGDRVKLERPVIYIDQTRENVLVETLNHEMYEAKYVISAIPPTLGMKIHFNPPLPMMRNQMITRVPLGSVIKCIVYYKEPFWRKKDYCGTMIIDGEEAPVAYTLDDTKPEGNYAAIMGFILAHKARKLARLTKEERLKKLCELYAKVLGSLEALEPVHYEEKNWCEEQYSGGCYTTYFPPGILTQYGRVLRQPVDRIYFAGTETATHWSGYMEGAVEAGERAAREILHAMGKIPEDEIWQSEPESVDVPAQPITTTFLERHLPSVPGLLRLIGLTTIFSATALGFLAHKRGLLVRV

[7] = biological target: T5, Amine oxidase [flavin-containing] A (Homo sapiens, UniProt P21397); experiment: Inhibition of MAO-A (unknown origin)
T5 sequence (P21397 whole entry): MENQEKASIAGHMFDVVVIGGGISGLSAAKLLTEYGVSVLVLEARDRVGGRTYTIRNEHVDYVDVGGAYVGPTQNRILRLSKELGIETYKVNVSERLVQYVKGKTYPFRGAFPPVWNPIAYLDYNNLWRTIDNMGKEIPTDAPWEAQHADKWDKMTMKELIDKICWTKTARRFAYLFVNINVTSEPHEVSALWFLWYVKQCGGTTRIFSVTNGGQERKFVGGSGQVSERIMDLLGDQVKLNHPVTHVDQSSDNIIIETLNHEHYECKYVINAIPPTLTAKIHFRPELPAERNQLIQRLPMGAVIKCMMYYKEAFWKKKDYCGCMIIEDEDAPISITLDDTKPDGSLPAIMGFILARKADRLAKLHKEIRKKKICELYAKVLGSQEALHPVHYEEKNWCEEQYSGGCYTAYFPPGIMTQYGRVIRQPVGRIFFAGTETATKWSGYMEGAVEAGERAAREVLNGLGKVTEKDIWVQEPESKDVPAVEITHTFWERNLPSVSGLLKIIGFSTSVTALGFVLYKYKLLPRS

[8] = biological target: T4, Amine oxidase [flavin-containing] B; experiment: Inhibition of MAO-B (unknown origin)
Acetylcholinesterase [9] = biological target: T6, Acetylcholinesterase (Electrophorus electricus, UniProt O42275); experiment: Inhibition of electric eel AChE using acetylthiocholine iodide as substrate preincubated for 5 mins followed by substrate addition by DTNB reagent based Ellman's method
T6 sequence (O42275 whole entry): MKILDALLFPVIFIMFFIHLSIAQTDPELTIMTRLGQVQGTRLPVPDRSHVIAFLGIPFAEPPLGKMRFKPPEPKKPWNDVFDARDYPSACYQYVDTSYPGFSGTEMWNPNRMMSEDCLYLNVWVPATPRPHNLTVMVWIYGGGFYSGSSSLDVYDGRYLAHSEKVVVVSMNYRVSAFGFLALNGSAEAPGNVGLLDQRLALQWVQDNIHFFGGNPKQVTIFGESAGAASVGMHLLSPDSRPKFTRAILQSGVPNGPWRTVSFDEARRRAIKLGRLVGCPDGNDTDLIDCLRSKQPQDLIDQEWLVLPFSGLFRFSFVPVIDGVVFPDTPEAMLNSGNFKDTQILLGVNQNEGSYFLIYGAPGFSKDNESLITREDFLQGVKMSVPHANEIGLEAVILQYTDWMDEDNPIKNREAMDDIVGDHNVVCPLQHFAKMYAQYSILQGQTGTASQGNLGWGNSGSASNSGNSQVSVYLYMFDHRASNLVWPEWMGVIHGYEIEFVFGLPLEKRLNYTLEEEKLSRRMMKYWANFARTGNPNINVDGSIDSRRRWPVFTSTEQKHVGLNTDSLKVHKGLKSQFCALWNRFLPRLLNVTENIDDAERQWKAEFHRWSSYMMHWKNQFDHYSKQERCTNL

Acetylcholinesterase [10] = biological target: T2, Acetylcholinesterase; experiment: Inhibition of human AChE using acetylthiocholine iodide as substrate measured for 1 hr by Ellman's method
Cholinesterase [11] = biological target: T7, Cholinesterase (Homo sapiens, UniProt P06276); experiment: Inhibition of human BChE using butyrylthiocholineiodide as substrate measured for 30 mins by Ellman's method
T7 sequence (P06276 whole entry): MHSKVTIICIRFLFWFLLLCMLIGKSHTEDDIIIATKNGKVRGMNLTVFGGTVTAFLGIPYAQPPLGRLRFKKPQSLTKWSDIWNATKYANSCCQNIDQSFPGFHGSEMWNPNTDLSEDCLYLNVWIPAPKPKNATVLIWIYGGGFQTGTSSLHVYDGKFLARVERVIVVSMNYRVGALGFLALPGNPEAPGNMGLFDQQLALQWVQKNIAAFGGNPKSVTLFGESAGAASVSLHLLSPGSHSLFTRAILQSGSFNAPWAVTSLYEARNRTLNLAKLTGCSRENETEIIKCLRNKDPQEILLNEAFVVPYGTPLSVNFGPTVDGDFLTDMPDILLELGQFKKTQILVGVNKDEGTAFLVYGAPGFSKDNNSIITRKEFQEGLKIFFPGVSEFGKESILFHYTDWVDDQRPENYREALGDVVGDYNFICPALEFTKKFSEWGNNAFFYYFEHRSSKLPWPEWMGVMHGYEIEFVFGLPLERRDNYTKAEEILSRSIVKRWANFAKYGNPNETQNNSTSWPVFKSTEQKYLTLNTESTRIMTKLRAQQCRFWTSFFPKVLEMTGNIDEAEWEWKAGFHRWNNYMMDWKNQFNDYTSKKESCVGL

Cholinesterase [12] = biological target: T7, Cholinesterase; experiment: Inhibition of BChE (unknown origin) incubated for 10 mins by Ellman's method
Beta-secretase 1 [13] = biological target: T1, Beta-secretase 1; experiment: Inhibition of BACE-1 (unknown origin) measured after 2 hrs by FRET assay
Acetylcholinesterase [14] = biological target: T6, Acetylcholinesterase; experiment: Inhibition of electric eel AChE using acetylthiocholine iodide as substrate preincubated with compounds for 20 mins followed by substrate addition and measured after 5 mins by Ellman's method
Beta-secretase 1 [15] = biological target: T1, Beta-secretase 1; experiment: Inhibition of BACE-1 (unknown origin)
Acetylcholinesterase [16] = biological target: T2, Acetylcholinesterase; experiment: Inhibition of AChE (unknown origin) incubated for 1 hr by Ellman's method
Acetylcholinesterase [17] = biological target: T2, Acetylcholinesterase
Description: Inhibition of human AChE by Ellman's method

Beta-secretase 1 [18] = biological target: T1, Beta-secretase 1; experiment: Inhibition of BACE-1 (unknown origin) incubated for 60 mins by TR-FRET assay
Acetylcholinesterase [19] = biological target: T2, Acetylcholinesterase; remark: listed apart in the source
[20] = biological target: T3, Glycogen synthase kinase-3 beta; experiment: Inhibition of human recombinant GSK3beta by ADP-Glo Kinase Assay
Acetylcholinesterase [21] = biological target: T2, Acetylcholinesterase; experiment: Inhibition of AChE (unknown origin) by Ellman's method
[22] = biological target: High affinity cGMP-specific 3',5'-cyclic phosphodiesterase 9A (Homo sapiens, UniProt O76083); experiment: Inhibition of PDE9A (unknown origin)
High affinity cGMP-specific 3',5'-cyclic phosphodiesterase 9A, sequence (O76083 whole entry): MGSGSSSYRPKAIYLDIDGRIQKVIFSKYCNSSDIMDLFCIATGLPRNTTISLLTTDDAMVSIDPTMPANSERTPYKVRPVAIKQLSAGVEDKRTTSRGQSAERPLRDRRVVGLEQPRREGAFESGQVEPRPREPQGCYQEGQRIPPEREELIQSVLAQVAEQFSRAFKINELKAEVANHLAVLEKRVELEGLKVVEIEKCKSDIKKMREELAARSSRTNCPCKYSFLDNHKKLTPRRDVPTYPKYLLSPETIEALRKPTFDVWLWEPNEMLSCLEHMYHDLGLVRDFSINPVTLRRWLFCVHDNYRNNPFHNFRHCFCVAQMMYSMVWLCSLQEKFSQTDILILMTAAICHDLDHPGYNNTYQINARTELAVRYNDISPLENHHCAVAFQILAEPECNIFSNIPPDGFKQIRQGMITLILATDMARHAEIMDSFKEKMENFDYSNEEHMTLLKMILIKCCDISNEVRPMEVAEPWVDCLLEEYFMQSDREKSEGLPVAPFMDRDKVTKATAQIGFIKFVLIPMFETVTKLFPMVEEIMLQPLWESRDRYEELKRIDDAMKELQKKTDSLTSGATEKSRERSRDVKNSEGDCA

[23] = Permeability of compound at pH 7.4 by PAMPA assay; assay type: ADME; conditions: read-out: permeability

T1 sequence (P56817 whole entry): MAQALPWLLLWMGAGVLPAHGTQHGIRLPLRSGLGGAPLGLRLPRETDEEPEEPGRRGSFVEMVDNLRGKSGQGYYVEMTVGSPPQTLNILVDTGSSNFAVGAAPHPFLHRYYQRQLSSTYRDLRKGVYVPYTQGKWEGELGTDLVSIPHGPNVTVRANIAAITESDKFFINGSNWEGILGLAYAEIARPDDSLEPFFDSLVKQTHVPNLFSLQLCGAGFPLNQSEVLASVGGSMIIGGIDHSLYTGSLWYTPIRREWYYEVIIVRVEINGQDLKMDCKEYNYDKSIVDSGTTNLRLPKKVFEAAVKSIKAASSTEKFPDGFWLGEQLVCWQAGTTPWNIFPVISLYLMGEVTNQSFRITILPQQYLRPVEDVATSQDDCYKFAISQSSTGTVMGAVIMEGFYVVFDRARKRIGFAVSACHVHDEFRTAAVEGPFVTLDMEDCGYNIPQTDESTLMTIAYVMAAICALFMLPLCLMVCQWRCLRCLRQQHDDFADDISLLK

Structure (SMILES): COc1ccccc1NC(=O)C1CCN(Cc2ccccc2)CC1
pIC50 (Beta-secretase 1 [1]): 6.56
pIC50 (Acetylcholinesterase [2]): 6.80

Structure (SMILES): Cc1ccc(/C=C/C(=O)c2ccccc2N)cn1
pIC50 (Acetylcholinesterase [3]): 5.53

pIC50 [4]: 5.25
Structure (SMILES): Cn1c(NCC(=O)c2ccccc2)nc(-c2ccncc2)cc1=O

Structure (SMILES): COc1ccc(/C=C/C(=O)c2ccccc2O)cc1OC
pIC50 (Acetylcholinesterase [5]): 4.55
pIC50 [6]: 5.85

Structure (SMILES): O=C(/C=C/c1ccc(OCc2ccccc2)cc1)c1ccc2c(c1)OCO2
pIC50 [7]: 5.06
pIC50 [8]: 5.81
pIC50 (Acetylcholinesterase [9]): 5.27

Structure (SMILES): [O-]/[N+](=C\c1ccc2cccc(O)c2n1)Cc1ccccc1
pIC50 (Acetylcholinesterase [10]): 7.52
pIC50 (Cholinesterase [11]): 9.00

Structure (SMILES): O=C(/C=C/c1ccc(F)cc1)c1ccc(Br)s1
pIC50 [7]: 5.39
pIC50 [8]: 5.77
pIC50 (Acetylcholinesterase [9]): 4.74
pIC50 (Cholinesterase [12]): 4.79

Structure (SMILES): COc1ccc2c(c1)C/C(=C/c1ccccc1-c1ccc3nc(N)ccc3c1)C2=O
pIC50 (Beta-secretase 1 [13]): 7.88
pIC50 (Acetylcholinesterase [14]): 7.83

Structure (SMILES): COC(=O)c1ccc(/C=N/NC(=O)c2ccc(Cl)nc2)cc1
pIC50 (Beta-secretase 1 [15]): 5.55
pIC50 (Acetylcholinesterase [16]): 7.00

Structure (SMILES): O=c1ccoc2ccc(OCCCN3CCCCC3)cc12
pIC50 (Acetylcholinesterase [17]): 5.25
pIC50 [8]: 5.14

Structure (SMILES): COc1ccc2c(c1)C/C(=C/c1ccccc1-c1ccccc1)C2=O
pIC50 (Beta-secretase 1 [13]): 6.90
pIC50 (Acetylcholinesterase [14]): 7.53

Structure (SMILES): O=C(/C=C/c1ccccc1)c1ccc(N2CCOCC2)cc1
pIC50 [7]: < 4.40
pIC50 (Cholinesterase [12]): < 4.40

Structure (SMILES): COc1ccc(NC(=O)C2CCN(Cc3ccccc3)CC2)cc1
pIC50 (Beta-secretase 1 [1]): 6.60
pIC50 (Acetylcholinesterase [2]): 6.78

Structure (SMILES): Nc1ccccc1C(=O)/C=C/c1ccc(Cl)nc1
pIC50 (Beta-secretase 1 [18]): 5.08
pIC50 (Acetylcholinesterase [3]): 4.72

Structure (SMILES): COc1nc(-c2ccnc(NC(=O)C3CC3)c2)sc1C(=O)NCNc1c2c(nc3ccccc13)CCCC2
pIC50 (Acetylcholinesterase [19]): 8.20
pIC50 [20]: 7.17

Structure (SMILES): Cn1c(NCCCCCCCNc2c3c(nc4cc(Cl)ccc24)CCCC3)nc(-c2ccncc2F)cc1=O
pIC50 (Acetylcholinesterase [21]): 7.29

Structure (SMILES): COc1ccc(/C=N/NC(=O)c2ccc(Cl)nc2)cc1OC
pIC50 (Beta-secretase 1 [15]): 6.40
pIC50 (Acetylcholinesterase [16]): 7.52

Structure (SMILES): Nc1ccccc1C(=O)/C=C/c1cnc2ccccc2c1
pIC50 (Beta-secretase 1 [18]): 4.77
pIC50 (Acetylcholinesterase [3]): 6.27

Structure (SMILES): O=C1[C@@H]2Cc3c([nH]c4ccccc34)[C@@H](c3ccc4c(c3)OCO4)N2C(=O)CN1CCC1CCN(Cc2ccccc2)CC1
pIC50 (Acetylcholinesterase [21]): 7.52

Structure (SMILES): CCO/C(C)=N/Oc1ccc(/C=C/C(=O)c2ccc(C)cc2)cc1
pIC50 [7]: 4.82
pIC50 [8]: 7.52
pIC50 (Acetylcholinesterase [9]): 6.07

Structure (SMILES): O=C(/C=C/c1ccc(Cl)cc1)c1ccc(Cl)s1
pIC50 [7]: 5.80
pIC50 [8]: 6.10
pIC50 (Acetylcholinesterase [9]): 4.83
pIC50 (Cholinesterase [12]): 4.71

Structure (SMILES): O=c1[nH]c(CCCCC2CCN(Cc3ccccc3)CC2)nc2c1cnn2C1CCCC1
pIC50 [22]: 6.55
pIC50 (Acetylcholinesterase [5]): 7.40

Structure (SMILES): Nc1ccccc1C(=O)/C=C/c1cnc2c(c1)OCO2
pIC50 (Acetylcholinesterase [3]): 5.38

Structure (SMILES): COc1ccc2c3c1O[C@H]1C[C@@H](O)C=C[C@@]31CCN(CCCCCCNC13CC4CC(C)(CC(C)(C4)C1)C3)C2 [MEMAGAL]
pIC50 (Acetylcholinesterase [21]): 8.94

Structure (SMILES): CCOc1cc(/C=N/NC(=O)c2ccc(Cl)nc2)ccc1O
pIC50 (Beta-secretase 1 [15]): 6.15
pIC50 (Acetylcholinesterase [16]): 7.52

Papp at 18 h [23]: 5.3 ×10⁻⁶ cm/s
Structure (SMILES): COc1cc(/C=C/c2nnc(-c3ccc(C(F)(F)F)cc3)o2)ccc1O

Structure (SMILES): O=c1[nH]c(COCCC2CCN(Cc3ccccc3)CC2)nc2c1cnn2C1CCCC1
pIC50 [22]: 6.28
pIC50 (Acetylcholinesterase [5]): 6.64
